Where two headings read alike, the source gives them in different places.

For one experiment, the target named is T1, EcMCM (E. coli MCM) (Escherichia coli, UniProt P27253).
T1 construct: 6xHis (N); made in house; host or cells: E. coli BL21(DE3)
Put plainly: Fluorescence binding assay, EcMCM. To be noted: read-out: Kd EcMCM; fitted curve, error = standard error of the curve fit. On the procedure:
(§1) All steps involving cobamides were conducted in the dark. The plate was centrifuged for 1 min at 3,800 rpm to level the surface of the liquid in each well. The plate was then incubated for 40 min at 30°C to allow binding, with a brief shaking step after 30 min. […] Following incubation, fluorescence emission at 340 nm (5-nm slit width) was measured upon excitation at 282 nm (5-nm slit width) using a Tecan Infinite M1000 Pro plate reader. Fluorescence, normalized to the initial value, was plotted as a function of cobamide concentration, and fitted to the following equation ([134]): F/F0=1+ΔFmax/F0([E]+[L]+Kd)−([E]+[L]+Kd)^2−4[E][L]/2[E] where F is fluorescence, F0 is initial fluorescence, [E] is total enzyme concentration, [L] is total ligand concentration, and Kd is the binding dissociation constant.

A further experiment has as its target T2, SmMCM (Rhizobium meliloti, UniProt O86028).
T2 construct: made in house; host or cells: E. coli BL21(DE3)pLysS
T2 sequence (O86028 2-712): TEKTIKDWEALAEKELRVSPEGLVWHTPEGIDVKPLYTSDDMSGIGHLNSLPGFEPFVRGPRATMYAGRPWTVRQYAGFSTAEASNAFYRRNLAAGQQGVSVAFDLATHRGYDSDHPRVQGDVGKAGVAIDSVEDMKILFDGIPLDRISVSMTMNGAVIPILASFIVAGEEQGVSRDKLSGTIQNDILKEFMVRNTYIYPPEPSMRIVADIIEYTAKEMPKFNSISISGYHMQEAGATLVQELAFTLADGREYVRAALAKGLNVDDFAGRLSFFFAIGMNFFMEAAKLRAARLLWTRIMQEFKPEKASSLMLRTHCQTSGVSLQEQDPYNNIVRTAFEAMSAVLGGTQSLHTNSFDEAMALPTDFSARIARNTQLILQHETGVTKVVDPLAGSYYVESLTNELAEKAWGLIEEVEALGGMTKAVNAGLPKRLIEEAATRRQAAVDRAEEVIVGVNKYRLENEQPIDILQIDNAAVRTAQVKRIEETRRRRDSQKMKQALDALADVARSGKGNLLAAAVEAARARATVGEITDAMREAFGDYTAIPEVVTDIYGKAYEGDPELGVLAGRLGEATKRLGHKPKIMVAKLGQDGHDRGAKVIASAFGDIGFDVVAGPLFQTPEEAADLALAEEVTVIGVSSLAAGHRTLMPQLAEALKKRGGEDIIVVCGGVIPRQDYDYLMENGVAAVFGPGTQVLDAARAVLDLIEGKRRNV
Put plainly: Filtration binding assay. Also on record: species or system Sinorhizobium meliloti. To be noted: 10 μM cobamide, 15 μM SmMCM. As to the method: Cobamides (10 μM) with and without MCM (15 μM) were incubated in 100 mM Tris, 50 mM phosphate, pH 7.5, at 30°C for 40 min, transferred to Nanosep 10K Omega centrifugal devices (Pall Corporation), and centrifuged for 5 min at 13,900 × g to separate unbound cobamides from enzyme-bound cobamides. The UV-Vis spectra of the filtrates were recorded on a BioTek Synergy 2 plate reader.

The next experiment has as its target VpMCM (V. parvula MCM) (Veillonella parvula, UniProt A0A124EFR6). Put plainly: Fluorescence binding assay, VpMCM. To be noted: fitted curve, error = standard error of the curve fit; equimolar α and β subunits. On the procedure: The α subunit of VpMCM (encoded by Vpar_RS09005) was expressed with an N-terminal 6×His tag from the pET-Duet expression vector in E. coli BL21(DE3). Protein expression was induced with 520 μM IPTG for 6 h at 30°C. The protein was batch purified by nickel affinity and subsequently purified by FPLC using a HiTrapQ column with an NaCl gradient from 50 to 500 mM in […], pH 8.0, 10% glycerol. The β subunit of VpMCM (encoded by Vpar_RS09000) was expressed separately with an N-terminal 6×His tag from the pET-Duet expression vector in E. coli BL21(DE3). […] Purified protein was dialyzed into 25 mM Tris-HCl, pH 8.0, 300 mM NaCl, 10% glycerol, and 1 mM β-mercaptoethanol. Concentration of pure α and β subunits (Fig. S7) was determined by absorbance at 280 nm (A280) using the theoretically calculated extinction coefficients 75,290 M^−1 cm^−1 and 74,260 M^−1 cm^−1, respectively ([125]). Equimolar amounts of α and β subunits were combined during the setup of fluorescence binding assays.
as §1

The subject of experiment [1] is MCM. On the set-up: method as in PMID 14235521. To be noted: cited from earlier work.
Experiment [2] has as its target T3, SmMCM (methylmalonyl-CoA mutase from S. meliloti) (Rhizobium meliloti, UniProt O86028).
T3 construct: made in house; host or cells: E. coli BL21(DE3)pLysS
T3 sequence (O86028 2-712): T2 sequence (O86028 2-712)
Put plainly: biochemical. The experiment is classed as binding, Sinorhizobium meliloti. To be noted: for binding to SmMCM detected by fluorescence quench (in words): low-micromolar / micromolar concentrations. As to the method:
as §1

For experiment [3], the target named is T4, SmMCM (Sinorhizobium meliloti MCM) (Rhizobium meliloti, UniProt O86028).
T4 construct: made in house; host or cells: E. coli BL21(DE3)pLysS
T4 sequence (O86028 2-712): T2 sequence (O86028 2-712)
Put plainly: Thiokinase-coupled spectrophotometric MCM activity assay. It is filed as biochemical. The note with it: SmMCM 50 nM reconstituted with 2 μM cobamide; (R)-methylmalonyl-CoA to succinyl-CoA, steady state, 30°C. On the procedure: Final concentrations of reagents in the assays were as follows: Tris-phosphate buffer (pH 7.5), 100 mM Tris, 50 mM phosphate; dithionitrobenzoate (DTNB), 400 μM; ADP, 1 mM; MgCl2, 10 mM; (R)-methylmalonyl-CoA, 0 to 4 mM; thiokinase, 5 μM; MCM, 50 nM; and cobamides, 2 μM.
Three separate mixes were prepared, all in 1× Tris-phosphate buffer: an assay mix containing DTNB, ADP, and MgCl2; a substrate mix containing (R)-methylmalonyl-CoA; and an enzyme mix containing thiokinase, MCM, and cobamides. All steps involving cobamides were conducted in the dark. The assay and enzyme mixes were prepared as a master mix and aliquoted into 96-well plates; substrate mixes were prepared in individual wells, in triplicate. All components were incubated at 30°C for 40 min to equilibrate temperature and allow prebinding of cobamides and MCM. After incubation, one replicate at a time, the substrate mix was added to the assay mix, followed by the enzyme mix. Absorbance at 412 nm (A412) was recorded immediately after addition of enzyme and for 1 to 3 min, every 3 s, on a BioTek Synergy 2 plate reader. The increase in A412 in reaction mixtures lacking substrate was subtracted from all readings, to account for reactivity of DTNB with thiols on protein surfaces.

The subject of experiment [4] is MCM. Also on record: method as in PMID 10563814. To be noted: cited from earlier work.
A further experiment has as its system P. shermanii MCM. Also on record: method as in PMID 11031263. The note with it: cited from earlier work.
[5] abbreviates: SmMCM 0.2 μM, pH 7.5, 30°C, average and standard deviation for three or more independent experiments, n. d. = binding too weak to determine Kd.

Chain of VpMCM (V. parvula MCM) (A0A124EFR6 entry or part of it): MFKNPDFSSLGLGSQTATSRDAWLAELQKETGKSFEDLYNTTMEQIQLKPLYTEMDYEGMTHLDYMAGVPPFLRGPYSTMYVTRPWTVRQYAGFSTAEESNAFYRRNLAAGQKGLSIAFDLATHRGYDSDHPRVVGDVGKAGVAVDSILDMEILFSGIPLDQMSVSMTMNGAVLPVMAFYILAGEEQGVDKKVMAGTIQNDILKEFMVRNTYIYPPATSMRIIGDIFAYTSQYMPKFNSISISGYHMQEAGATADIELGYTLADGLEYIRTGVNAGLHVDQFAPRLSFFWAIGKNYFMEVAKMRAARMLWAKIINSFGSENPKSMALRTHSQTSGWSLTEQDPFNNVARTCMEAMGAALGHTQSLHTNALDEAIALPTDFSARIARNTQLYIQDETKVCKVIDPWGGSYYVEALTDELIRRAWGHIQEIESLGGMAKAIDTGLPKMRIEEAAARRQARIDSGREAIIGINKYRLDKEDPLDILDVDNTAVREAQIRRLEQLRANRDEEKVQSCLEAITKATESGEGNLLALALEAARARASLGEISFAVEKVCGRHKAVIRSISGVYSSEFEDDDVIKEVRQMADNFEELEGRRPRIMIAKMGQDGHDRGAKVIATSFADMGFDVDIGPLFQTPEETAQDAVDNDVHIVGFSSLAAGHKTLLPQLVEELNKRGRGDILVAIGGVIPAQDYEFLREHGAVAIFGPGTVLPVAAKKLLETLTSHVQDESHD
T1 sequence (P27253 whole entry): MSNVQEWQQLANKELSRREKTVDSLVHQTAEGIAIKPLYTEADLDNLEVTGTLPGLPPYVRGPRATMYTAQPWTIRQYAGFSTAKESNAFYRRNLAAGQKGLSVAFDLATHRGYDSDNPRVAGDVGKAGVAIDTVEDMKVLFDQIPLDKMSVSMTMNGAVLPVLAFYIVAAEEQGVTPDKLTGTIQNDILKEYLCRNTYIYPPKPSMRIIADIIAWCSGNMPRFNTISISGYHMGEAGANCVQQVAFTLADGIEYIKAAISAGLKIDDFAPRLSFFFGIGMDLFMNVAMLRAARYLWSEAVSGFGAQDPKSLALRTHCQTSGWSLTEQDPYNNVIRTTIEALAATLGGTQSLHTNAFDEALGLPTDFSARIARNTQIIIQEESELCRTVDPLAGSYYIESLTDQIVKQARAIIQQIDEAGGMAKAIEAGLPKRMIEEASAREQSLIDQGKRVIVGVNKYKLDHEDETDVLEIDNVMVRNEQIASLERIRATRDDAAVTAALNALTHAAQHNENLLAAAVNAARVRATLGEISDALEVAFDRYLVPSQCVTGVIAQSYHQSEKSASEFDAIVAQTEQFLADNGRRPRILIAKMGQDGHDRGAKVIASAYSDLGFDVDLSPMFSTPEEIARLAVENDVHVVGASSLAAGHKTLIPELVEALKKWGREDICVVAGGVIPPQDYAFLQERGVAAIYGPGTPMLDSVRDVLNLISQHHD

In the case of `C/C1=C2/[N-][C@H]([C@H](CC(N)=O)[C@@]2(C)CCC(=O)NC[C@@H](C)OP(=O)([O-])O[C@H]2[C@@H](O)[C@@H](n3cnc4ncnc(N)c43)O[C@@H]2CO)[C@]2(C)N=C(/C(C)=C3N=C(/C=C4N=C1[C@@H](CCC(N)=O)C\4(C)C)[C@@H](CCC(N)=O)[C@]\3(C)CC(N)=O)[C@@H](CCC(N)=O)[C@]2(C)CC(N)=O.[CH2-][C@H]1O[C@@H](n2cnc3c(N)ncnc32)[C@H](O)[C@@H]1O.[Co+3]` [Ado[Ade]Cba, Adeninylcobamide], the results for the Kd at EcMCM (E. coli MCM) and at VpMCM (V. parvula MCM) were 1.6 ± 0.4 µM and 9 ± 4 µM, respectively. In addition, the “binding to SmMCM in filtration-based assay” value at SmMCM is “did not bind to any significant extent”. The “MCM activity in S. meliloti bacteroids” value in the experiment with MCM [1] is given as “absent”. Besides, the “binding to SmMCM detected by fluorescence quench (in words)” value in experiment [2] was “did not bind to any significant extent”.
`C/C1=C2/[N-][C@H]([C@H](CC(N)=O)[C@@]2(C)CCC(=O)NC[C@@H](C)OP(=O)([O-])O[C@H]2[C@@H](O)[C@@H](n3cnc4cc(C)c(C)cc43)O[C@@H]2CO)[C@]2(C)N=C(/C(C)=C3N=C(/C=C4N=C1[C@@H](CCC(N)=O)C\4(C)C)[C@@H](CCC(N)=O)[C@]\3(C)CC(N)=O)[C@@H](CCC(N)=O)[C@]2(C)CC(N)=O.[CH2-][C@H]1O[C@@H](n2cnc3c(N)ncnc32)[C@H](O)[C@@H]1O.[Co+3]` [AdoCbl, adenosylcobalamin, reference compound]: the Kd (in general, a measure of binding affinity in units of concentration) at EcMCM (E. coli MCM) turned out to be 0.6 ± 0.1 µM; on VpMCM (V. parvula MCM) it was 2.8 ± 0.6 µM; in experiment [2] (setting [5]), 0.03 ± 0.02 µM. In addition, in the experiment on MCM [1], the “MCM activity in S. meliloti bacteroids” value is “highest”. Moreover, the kcat – broadly, the maximal rate divided by the concentration of active sites – in experiment [3] came out at 26 ± 1 s⁻¹.
Take `C/C1=C2/[N-][C@H]([C@H](CC(N)=O)[C@@]2(C)CCC(=O)NC[C@@H](C)OP(=O)([O-])O[C@H]2[C@@H](O)[C@@H](n3cnc4ccccc43)O[C@@H]2CO)[C@]2(C)N=C(/C(C)=C3N=C(/C=C4N=C1[C@@H](CCC(N)=O)C\4(C)C)[C@@H](CCC(N)=O)[C@]\3(C)CC(N)=O)[C@@H](CCC(N)=O)[C@]2(C)CC(N)=O.[CH2-][C@H]1O[C@@H](n2cnc3c(N)ncnc32)[C@H](O)[C@@H]1O.[Co+3]` [Ado[Bza]Cba, Benzimidazolylcobamide]: the figures for the Kd (at EcMCM (E. coli MCM); on VpMCM (V. parvula MCM); in experiment [2] (setting [5])) were 1.8 ± 0.2 µM, 1.4 ± 0.3 µM and 0.4 ± 0.2 µM, respectively. Moreover, the “MCM activity in S. meliloti bacteroids” value in the experiment on MCM [1] was “intermediate”.
The compound `C/C1=C2/[N-][C@H]([C@H](CC(N)=O)[C@@]2(C)CCC(=O)NC[C@@H](C)O)[C@]2(C)N=C(/C(C)=C3N=C(/C=C4N=C1[C@@H](CCC(N)=O)C\4(C)C)[C@@H](CCC(N)=O)[C@]\3(C)CC(N)=O)[C@@H](CCC(N)=O)[C@]2(C)CC(N)=O.[CH2-][C@H]1O[C@@H](n2cnc3c(N)ncnc32)[C@H](O)[C@@H]1O.[Co+3]` [Ado-cobinamide, adenosylcobinamide, reference compound] came in with a Kd in experiment [2] of 0.8 ± 0.2 µM. Further, in the experiment with MCM [4], the “support of MCM activity in vitro” value is listed as “does not support MCM activity”.
Turning to `C/C1=C2/[N-][C@H]([C@H](CC(N)=O)[C@@]2(C)CCC(=O)NC[C@@H](C)OP(=O)([O-])OP(=O)([O-])OC[C@H]2O[C@@H](n3cnc4c(=O)[nH]c(N)nc43)[C@H](O)[C@@H]2O)[C@]2(C)N=C(/C(C)=C3N=C(/C=C4N=C1[C@@H](CCC(N)=O)C\4(C)C)[C@@H](CCC(N)=O)[C@]\3(C)CC(N)=O)[C@@H](CCC(N)=O)[C@]2(C)CC(N)=O.[CH2-][C@H]1O[C@@H](n2cnc3c(N)ncnc32)[C@H](O)[C@@H]1O.[Co]` [adenosylcobinamide-GDP], in the experiment on P. shermanii MCM, the “support of P. shermanii MCM activity compared to AdoCbl” value is on record as “only slight catalytic impairment”.
In the case of “5-Hydroxybenzimidazolylcobamide [Ado[5-OHBza]Cba]”, the “binding to SmMCM in filtration-based assay” value on SmMCM is “little to no binding”. The “binding to SmMCM detected by fluorescence quench (in words)” value in experiment [2] is “no binding”.

Values taken from PMC6759758, “Cofactor Selectivity in Methylmalonyl Coenzyme A Mutase, a Model Cobamide-Dependent Enzyme” (mBio, 2019).
